Results taken from patent US6605115B1, “Method and composition for inhibiting cardiovascular cell proliferation” (Board of Trustees of the Leland Stanford Junior University, priority 1999, dated 2003).

Assays:
[1] = test system: human umbilical vein endothelial cells (ECV304); experiment: In vitro translocation of biotin-labeled peptides into endothelial cells; format: cell-based
Description: Spontaneously transformed human umbilical vein endothelial cells (ECV304, ATCC) were cultured in medium M199 (Irvine Scientific) containing 10% fetal bovine serum (FBS), 100 IU/ml penicillin and 100 μg/ml of streptomycin (Gibco BRL). Confluent cells were washed and placed in serum-free medium. After 2 hours, the cells were incubated in presence of biotin labeled peptides, as bL-R7, or bD-R7, or bL-K7 (0.1, 1.0, and 10.0 μM). After 30 minutes of incubation, cells were washed 3 times with phosphate-buffered saline (PBS), fixed in ethanol/acetone; washed in PBS; incubated for 30 minutes with peroxidase suppressor (ImmunoPure, Pierce) to block endogenous peroxidase activity; and then incubated with 5 μg/ml of horse-radish peroxidase (HRP) conjugated strepavidin (Pierce) for 30 minutes. Substrate of HRP, diaminobenzidine (DAB, Sigma), was added to the cells. The reaction was terminated by washing in distilled water after a 60-second incubation. This experiment was repeated 3 times.

[2] = test system: rat vascular smooth muscle cells (VSMC); experiment: Translocation of biotin-labeled peptides into cultured VSMC (HRP-streptavidin/DAB staining); format: cell-based; details: 10 μM, 30 minutes, 37° C.
Description: In the studies described below, transmembrane transport and cellular uptake of oligomers was assessed by incubating cells or tissue with biotin-oligomer conjugates, followed by treatment with horseradish peroxidase (HRP)-conjugated streptavidin and subsequent incubation with DAB (3,3′-diaminobenzidine), a substrate of the enzyme which produces a highly colored product.
Cultured VSMC (vascular smooth muscle cells) were treated, as described in Example 2, with biotinylated oligomers of arginine or lysine. After incubation, the cells were treated with HRP-streptavidin conjugate, then with DAB. Staining by the oxidation product was observed using light microscopy.
Rat VSMCs were grown on glass microscope slide chambers (Nunc Inc., Naperville, Ill.). Subconfluent cells were washed and placed in serum-free medium. After 2 hours, cells were treated with bR7, or bK7 (0.1 μM, 1.0 μM, 10 μM), at 37° C. for 30 minutes. To assess the role of endocytosis in cellular uptake of the peptides, experiments were performed at 4° C., and also in the presence of sodium azide (1.0%) for 30 minutes prior to exposure to the peptides. To assess the involvement of the basic amino acid transport system y+ in the translocation of peptides into the cell, experiments were performed in the presence of excess extracellular L-arginine (10 mM).
After 30 minutes of incubation with the peptides, cells were washed 3 times with phosphate-buffered saline (PBS), fixed for 5 minutes at −20° C. in ethanol/acetone, washed 3 times in PBS, incubated for 30 minutes with a peroxidase suppressor (ImmunoPure, Pierce, Rockford, Ill.) to block endogenous peroxidase activity and nonspecific binding, washed, and then incubated with 5 μg/ml of horseradish peroxidase (HRP) conjugated strepavidin (Pierce, Rockford, Ill.) for 30 minutes. Cells were washed 3 times with PBS, and a substrate of HRP, DAB (Sigma, St. Louis, […].), was added to the cells. The reaction was terminated by washing in distilled water after a 60-second incubation with DAB. Cell preparations were observed by conventional light microscopy (see FIG. 1). This experimental protocol was repeated 3 times.

[3] = test system: rabbit carotid artery segment; experiment: Ex vivo translocation study, carotid artery segments; design: species or system New Zealand white rabbits; details: carotid artery, 10.0 μM, 30 minutes
Description: (§1) After incubation with biotin labeled oligomer, vascular segments were washed, then frozen in OCT compound (Miles Scientific). Frozen sections, 5 μm thick, were fixed with acetone for 10 minutes. Internalized biotin was detected using the staining procedure described in Example 2. Methyl green was used for nuclear counter staining.
(§2) To quantify the efficiency of nuclear translocation, the numbers of both DAB positive nuclei and total nuclei were counted in the intima and media separately at ×400 magnification with a video image analysis system (Automatrix). The frequency of nuclear translocation was expressed as the percent staining of nuclei, defined as the ratio of the number of DAB positive nuclei to that of all nuclei, in the intima and media. Each protocol was repeated 4 times.
Both carotid artery and jugular vein segments of male New Zealand white rabbits were used. To test the dose dependence of R7 translocation, vascular segments were incubated for 30 minutes with either bL-R7 or bD-R7 solution (0.1, 1.0, and 10.0 μM) in serum-free Dulbecco's minimal essential medium (DMEM) (Gibco BRL). To test the incubation time dependence, vascular segments were incubated with 10.0 μM of biotin labeled R7 solution for 10 seconds, 60 seconds, 5 minutes, 10 minutes, and 30 minutes. Furthermore, to determine the ability of R7 to penetrate through the vessel wall, vascular segments were ligated one end, R7 containing medium was instilled, and the other end ligated so as to expose only the luminal surface to R7. The luminal surface of the vascular segment was exposed to bL-R7 or bD-R7 (10.0 μM) for 30 minutes. To test the temperature dependence of translocation, vascular segments were incubated with 10.0 μM of biotin labeled R7 solutions at 37° C. or 4° C. To determine the disappearance time course of translocated R7, vascular segments were incubated with biotin labeled R7 solutions (10.0 μM) at 37° C. for 30 minutes, and then reincubated in DMEM with 10% FBS up to 5 days. Vascular segments were harvested at 1, 2 and 5 days after initial incubation.

[4] = test system: jugular vein segments; experiment: Ex vivo translocation study, jugular vein segments; design: species or system New Zealand white rabbits; details: 10 μM, 30 minutes
Description: as §1, §2
Both carotid artery and jugular vein segments of male New Zealand white rabbits were used. To test the dose dependence of R7 translocation, vascular segments were incubated for 30 minutes with either bL-R7 or bD-R7 solution (0.1, 1.0, and 10.0 μM) in serum-free Dulbecco's minimal essential medium (DMEM) (Gibco BRL). To test the incubation time dependence, vascular segments were incubated with 10.0 μM of biotin labeled R7 solution for 10 seconds, 60 seconds, 5 minutes, 10 minutes, and 30 minutes. […]

[5] = test system: cytokine-stimulated VSMC; experiment: Effect of arginine oligomers on NO production in cytokine-stimulated VSMC (NO2, Griess); format: cell-based, rat
Description: Rat VSMCs were prepared from the media layer of thoracic aorta of Sprague-Dawley rats by the explant method. The cells were cultured in Dulbecco's modified Eagle's medium (DMEM, Gibco BRL, Gaithersburg, Md.) containing 10% fetal calf serum, 100 U/ml penicillin and 100 μg/ml streptomycin at 37° C. under a humidified atmosphere containing 5% CO2. After subconfluent growth, cells were cultured with MEM Select Amine Kit (Gibco BRL, Gaithersburg, Md.) to be treated by specific concentrations of extracellular free L-arginine. Experiments were performed using cultured cells at passage levels of 5-10.
Extracellular NO production was measured as its stable oxidative metabolite, nitrite (NO2). At the end of each incubation, samples of the medium (80 μl) were collected, and NO2 measurement was performed using the Griess reaction facilitated by a commercial calorimetric assay (Cayman Chemical, Ann Arbor, Mich.). Values of NO2 production were corrected with relative cell count assessed by a cell proliferation kit II (XTT) (Boeheringer Mannheim, Germany).
Subconfluent cells were pre-incubated with medium containing 100 μM arginine for 24 hours. The cells were then transiently pretreated with each arginine polymer for 30 minutes. After translocation, the cells were incubated with a mixture of IFN-γ (100 U/ml) and LPS (100 μg/ml) in medium containing 100 μM L-arginine for another 24 hours. In some experiments, L-NMMA (1 mM), a nitric oxide synthase inhibitor, was added to the medium.

[6] = test system: vein grafts; experiment: Vein graft model: vessel morphometry 28 days after surgery; format: in vivo, New Zealand white rabbits
Description: Male New Zealand white rabbits (3.0-3.5 kg) fed standard diets were anesthetized with a mixture of ketamine (40 mg/kg) and xylazine (5 mg/kg) intramuscularly. The left external jugular vein was exposed through a longitudinal neck incision. The jugular vein was excised, gently flushed and immersed in PBS (control) or PBS containing either L-R7 (10.0 μM) or D-r7 (10.0 μM) for 30 minutes.
The right common carotid artery was exposed and clamped at the both proximal and distal ends. The treated vein segment was washed with PBS and then anastomosed in a reverse end-to-side fashion into the carotid artery, using continuous 8-0 polypropylene sutures. The common carotid artery was ligated and dissected between the two anastomoses, and the wound was closed with 3-0 nylon suture.
Vein graft segments were harvested on the 28th surgical day. Graft segments were fixed in 10% buffered formalin with gentle intraluminal pressure to maintain the physiological graft configuration. The middle portion of the paraffin samples were sectioned (5 μm) and stained with hematoxylin/eosin for light microscopic examination (FIGS. 8A-C). Three sections of each graft, taken at 0.5 mm intervals, were analyzed by planimetry by a observer blinded to the treatment group. The cross-sectional areas of the lumen, intima and media was digitized with the use of the Image Analyst program (Automatrix). The ratio of intima to media (I/M) area was calculated.

[7] = test system: Rat aortic VSMC; experiment: VSMC proliferation assay (XTT); format: cell-based; details: 10.0 μM, 30 minutes, then growth medium 0.5% FBS for 48 hours; vs vehicle
Description: Rat aortic VSMC were grown to 50% confluence in 96-well cell culture plates. VSMC were then washed and incubated with serum free DMEM for 48 hours to obtain quiescent nondividing cells. Thereafter, VSMC were treated with vehicle, L-R7 (10.0 μM), or D-R7 (10.0 μM) for 30 minutes. After the treatment, cells were washed, and further incubated with serum containing DMEM (0.5%, FBS). Cells were harvested after 48 hours of incubation. Cell count was performed with commercial cell proliferation assay kit using spectrophotometer (XTT, Boehringer Mannheim). As a negative control, cells treated with vehicle and incubated with DSF were used. As an index of cell proliferation, the OD ratio of each treatment group to negative control group was calculated as an index of cell proliferation.

[8] = test system: iNOS protein; experiment: Assay for iNOS protein expression (western blotting); format: cell-based, rat; details: 10 μM, 30 minutes exposure, cells stimulated by IFN-γ and LPS
Description: In order to clarify the effects of arginine polymer translocation on iNOS expression, iNOS protein concentrations of rat VSMC were analyzed by western blotting. Samples were analyzed from non-stimulated cells, cells stimulated with IFN-γ (100 U/ml) and LPS (100 μg/ml), or R7 (10 μM) pretreated cells which were stimulated with IFN-γ and LPS. Treated cells were washed twice with PBS, and total cell lysates were harvested in 150 μl of lysis buffer containing 150 mM NaCl, 50 mM Tris/Cl, pH 8.0, 1% NP40, and 0.1% SDS. Samples were centrifuged for 5 minutes at 14,000 g, 4° C., to remove insoluble material, and the supernatant was collected. Protein concentrations were measured with the Lowry method. Cell lysates containing 50 μg of protein were boiled for 5 minutes and separated on an 8.0% SDS-polyacrylamide minigel. Eluted proteins were electroblotted onto nitrocellulose membrane (HyBond, Amersham, England). The blots were incubated for 1 hour in 5% non-fat dry milk/0.05% Tween® in Tris buffered saline (TBS) to block non-specific binding of the antibody. Blots were incubated for 3 hours with primary monoclonal antibodies against iNOS protein diluted 1:2,500 in TBS/Tween®. The blots were then incubated with peroxidase labeled gout anti-mouse IgG in the same buffer for 1 hour. […]

[9] = test system: cytokine-stimulated VSMC; experiment: Effect of arginine oligomers on NO production in cytokine-stimulated VSMC (NO2, Griess); format: cell-based, rat; details: exposure 5 minutes; observed for 24 hours; free L-arginine at 1 mM
[10] = test system: vein graft segments; experiment: Ex vivo NOx production from vein graft harvested 3 days after surgery; format: in vivo, New Zealand white rabbits; details: vein grafts harvested after 3 days, absence of calcium ionophore
Description: Vein grafts were harvested 3 days after surgery, as described in Example 7. Vein graft segments were incubated in 1 me of Hanks' buffered saline solution (HBSS, Irvine Scientific) containing Ca^2+ (1.0 mM) and L-arginine (100 μM, Sigma) at 37° C. for 2 hours. NOx (nitrate and nitrite) production was measured either in the absence (basal) or presence (stimulated) of calcium ionophore (A23187, 10.0 μM, Sigma). Samples of the medium (80 μL) were collected, and NOx measurement was performed using the Griess reaction facilitated by a commercial calorimetric assay (Cayman Chemical).

Substance | internalized biotin signals ([1]; endothelial cells, 0.1, 1.0, and 10.0 μM, 30 minutes) | internalized biotin signal (staining) [2] | biotin signal in vascular cells [3] | biotin staining pattern [4] | translocation across cytoplasmic and nuclear membranes ([1]; VSMC and endothelial cells in culture) | elevation of NO production ([5]; R7 10 μM pretreatment, free L-arginine up to 1 mM) | NO production ([5]; pretreatment 30 minutes, then IFN-γ and LPS, 100 μM extracellular L-arginine) | degree of enhancement of NO production ([5]; pretreatment 30 minutes, vs. vehicle treated cytokine-stimulated cells) [%] | myointima formation [6] | intima/media ratio (I/M) ([6]; 10.0 μM) | intimal area ([6]; 10.0 μM, 30 minutes immersion) [mm^2] | reduction of intimal area ([6]; 10.0 μM, vs control) | VSMC proliferation [7] | expression levels of iNOS [8] | NO biosynthesis after 5 minutes exposure [9] | Basal NOx production [10] [nM/mg tissue/hr]
biotin-labeled heptalysine [bK7, reference compound] | No internalized biotin signals were detected | no internalized biotin signal was observed | no stained cells were apparent | no stained cells were apparent | – | – | – | – | – | – | – | – | – | – | – | –
hepta-L-arginine [R7] | – | – | – | – | very efficient at translocating across both cytoplasmic and nuclear membranes | significant elevation of NO production | dose-dependent increases in NO production at doses as low as 10 μM | 24±3.8 | substantially less myointima formation | 0.4±0.2 | 0.5±0.2 | more than 70% | significantly inhibited | no effect on the expression levels of iNOS | sustained increase in NO biosynthesis | 80±14
